In article PMC6804997 (PLoS ONE, 2019):

Columns and labels:
Test in all cases: HDAC enzyme inhibition assay (Ac-peptide-AMC substrate)
Assay type in all cases: biochemical
HDAC4 = HDAC4 (Homo sapiens, UniProt P56524); settings: HDAC4 vs HDAC6
Method: (§1) HDACs inhibition assay of F7 was performed utilizing 4-amino-7-methylcoumarin (AMC) labeled Ac-peptide (Ac-peptide-AMC) substrates, a service provided by Chempartner Company (Shanghai, China).
(§2) This assay was performed was performed utilizing 4-amino-7-methylcoumarin (AMC) labeled Ac-peptide (Ac-peptide-AMC) substrates, a service provided by Chempartner Company (Shanghai, China).

HDAC9 = HDAC9 (Homo sapiens, UniProt Q9UKV0); settings: HDAC9 vs HDAC6
Chain of HDAC9 (Q9UKV0 whole entry, species assumed): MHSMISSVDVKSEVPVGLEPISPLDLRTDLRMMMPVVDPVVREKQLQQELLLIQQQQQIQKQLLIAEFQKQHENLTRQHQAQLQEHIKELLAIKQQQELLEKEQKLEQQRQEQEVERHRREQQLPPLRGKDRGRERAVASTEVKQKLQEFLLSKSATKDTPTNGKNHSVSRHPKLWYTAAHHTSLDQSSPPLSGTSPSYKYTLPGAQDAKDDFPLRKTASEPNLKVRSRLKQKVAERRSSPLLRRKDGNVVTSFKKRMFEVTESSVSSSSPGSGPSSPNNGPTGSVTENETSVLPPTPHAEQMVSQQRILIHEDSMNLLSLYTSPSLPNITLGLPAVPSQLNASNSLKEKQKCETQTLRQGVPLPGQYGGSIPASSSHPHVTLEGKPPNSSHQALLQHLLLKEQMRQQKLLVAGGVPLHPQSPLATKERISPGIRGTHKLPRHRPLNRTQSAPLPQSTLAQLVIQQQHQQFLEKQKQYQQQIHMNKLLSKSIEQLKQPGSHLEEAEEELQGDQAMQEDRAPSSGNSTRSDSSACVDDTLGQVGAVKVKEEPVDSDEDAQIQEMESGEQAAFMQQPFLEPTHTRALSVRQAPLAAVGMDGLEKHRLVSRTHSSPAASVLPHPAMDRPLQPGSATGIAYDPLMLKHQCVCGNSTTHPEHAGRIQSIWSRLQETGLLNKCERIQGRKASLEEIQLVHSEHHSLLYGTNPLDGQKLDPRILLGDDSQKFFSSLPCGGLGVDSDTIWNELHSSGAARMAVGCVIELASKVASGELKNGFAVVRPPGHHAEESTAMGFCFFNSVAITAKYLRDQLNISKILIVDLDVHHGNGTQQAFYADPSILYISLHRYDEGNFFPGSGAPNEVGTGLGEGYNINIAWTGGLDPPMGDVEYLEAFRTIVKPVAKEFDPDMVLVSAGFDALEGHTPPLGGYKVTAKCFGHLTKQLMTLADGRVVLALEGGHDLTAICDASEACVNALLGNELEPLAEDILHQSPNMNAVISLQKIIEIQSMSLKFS
Method: as §1, §2

HDAC11 = target: T1, HDAC11 (Homo sapiens, UniProt Q96DB2); settings: HDAC11 vs HDAC6
T1 sequence (Q96DB2 1-347): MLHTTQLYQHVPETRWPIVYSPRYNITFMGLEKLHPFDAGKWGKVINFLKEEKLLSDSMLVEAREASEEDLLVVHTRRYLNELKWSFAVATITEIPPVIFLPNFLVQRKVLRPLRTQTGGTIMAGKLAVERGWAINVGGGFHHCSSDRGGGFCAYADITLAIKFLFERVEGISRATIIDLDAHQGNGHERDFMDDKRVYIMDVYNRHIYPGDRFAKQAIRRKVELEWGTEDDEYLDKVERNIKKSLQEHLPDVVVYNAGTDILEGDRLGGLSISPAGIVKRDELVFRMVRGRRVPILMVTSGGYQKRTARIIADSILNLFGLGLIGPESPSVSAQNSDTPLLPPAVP
Method: as §1, §2

HDAC5 = HDAC5 (Homo sapiens, UniProt Q9UQL6); settings: HDAC5 vs HDAC6
Chain of HDAC5 (Q9UQL6 whole entry, species assumed): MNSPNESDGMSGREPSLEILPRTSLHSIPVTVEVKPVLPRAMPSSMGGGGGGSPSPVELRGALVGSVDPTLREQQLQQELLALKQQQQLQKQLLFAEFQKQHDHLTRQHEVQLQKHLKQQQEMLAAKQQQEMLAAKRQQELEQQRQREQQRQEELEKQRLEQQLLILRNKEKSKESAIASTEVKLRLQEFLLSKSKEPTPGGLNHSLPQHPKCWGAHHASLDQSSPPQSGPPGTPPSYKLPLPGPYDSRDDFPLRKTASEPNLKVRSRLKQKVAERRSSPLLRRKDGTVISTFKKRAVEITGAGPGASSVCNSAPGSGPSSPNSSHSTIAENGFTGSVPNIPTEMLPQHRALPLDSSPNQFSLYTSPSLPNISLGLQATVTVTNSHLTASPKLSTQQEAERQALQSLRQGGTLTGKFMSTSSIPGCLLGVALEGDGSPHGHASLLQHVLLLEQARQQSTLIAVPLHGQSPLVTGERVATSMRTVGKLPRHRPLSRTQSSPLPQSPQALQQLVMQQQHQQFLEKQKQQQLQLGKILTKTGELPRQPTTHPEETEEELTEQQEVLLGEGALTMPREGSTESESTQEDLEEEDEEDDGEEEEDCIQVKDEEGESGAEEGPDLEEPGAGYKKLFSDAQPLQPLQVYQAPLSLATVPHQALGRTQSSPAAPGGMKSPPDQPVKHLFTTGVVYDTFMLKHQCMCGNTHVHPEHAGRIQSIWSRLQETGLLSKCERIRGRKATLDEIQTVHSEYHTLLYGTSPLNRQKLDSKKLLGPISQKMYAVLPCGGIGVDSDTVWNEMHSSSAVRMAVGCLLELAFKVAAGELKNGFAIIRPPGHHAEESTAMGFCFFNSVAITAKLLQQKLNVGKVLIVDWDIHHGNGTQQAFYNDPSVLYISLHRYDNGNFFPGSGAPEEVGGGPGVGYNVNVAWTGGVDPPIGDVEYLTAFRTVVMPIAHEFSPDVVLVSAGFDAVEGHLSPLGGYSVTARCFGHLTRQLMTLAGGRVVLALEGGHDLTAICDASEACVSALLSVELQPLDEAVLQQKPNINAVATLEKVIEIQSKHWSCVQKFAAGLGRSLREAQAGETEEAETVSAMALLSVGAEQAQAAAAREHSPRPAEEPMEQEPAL
Method: as §1, §2

HDAC7 = target: T2, HDAC7 (Homo sapiens, UniProt Q8WUI4); settings: HDAC7 vs HDAC6
T2 sequence (Q8WUI4 1-952): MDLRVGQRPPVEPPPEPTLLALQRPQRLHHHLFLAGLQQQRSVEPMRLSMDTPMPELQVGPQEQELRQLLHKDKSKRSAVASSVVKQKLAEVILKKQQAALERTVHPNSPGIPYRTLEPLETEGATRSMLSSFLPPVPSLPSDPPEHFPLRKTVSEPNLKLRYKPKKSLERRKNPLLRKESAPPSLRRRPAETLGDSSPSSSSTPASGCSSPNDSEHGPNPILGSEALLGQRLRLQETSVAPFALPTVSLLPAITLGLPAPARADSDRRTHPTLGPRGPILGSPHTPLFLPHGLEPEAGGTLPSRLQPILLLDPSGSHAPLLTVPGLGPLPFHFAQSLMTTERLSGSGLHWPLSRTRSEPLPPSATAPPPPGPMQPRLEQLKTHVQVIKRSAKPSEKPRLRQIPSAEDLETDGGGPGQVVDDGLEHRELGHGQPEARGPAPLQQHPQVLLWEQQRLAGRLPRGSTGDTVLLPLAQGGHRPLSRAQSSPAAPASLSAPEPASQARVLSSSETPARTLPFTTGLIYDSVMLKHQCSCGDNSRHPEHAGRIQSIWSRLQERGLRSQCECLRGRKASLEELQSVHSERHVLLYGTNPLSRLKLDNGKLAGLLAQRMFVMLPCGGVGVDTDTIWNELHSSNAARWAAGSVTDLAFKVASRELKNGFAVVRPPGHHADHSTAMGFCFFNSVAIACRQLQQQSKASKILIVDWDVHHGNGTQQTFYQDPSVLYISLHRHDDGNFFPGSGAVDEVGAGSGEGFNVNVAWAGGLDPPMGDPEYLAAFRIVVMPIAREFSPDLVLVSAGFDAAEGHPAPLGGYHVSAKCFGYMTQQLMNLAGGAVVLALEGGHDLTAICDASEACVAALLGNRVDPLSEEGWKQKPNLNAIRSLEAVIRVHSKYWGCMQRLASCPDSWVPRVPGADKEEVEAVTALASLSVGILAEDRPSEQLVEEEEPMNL
Method: as §1, §2

Chain of HDAC4 (P56524 whole entry, species assumed): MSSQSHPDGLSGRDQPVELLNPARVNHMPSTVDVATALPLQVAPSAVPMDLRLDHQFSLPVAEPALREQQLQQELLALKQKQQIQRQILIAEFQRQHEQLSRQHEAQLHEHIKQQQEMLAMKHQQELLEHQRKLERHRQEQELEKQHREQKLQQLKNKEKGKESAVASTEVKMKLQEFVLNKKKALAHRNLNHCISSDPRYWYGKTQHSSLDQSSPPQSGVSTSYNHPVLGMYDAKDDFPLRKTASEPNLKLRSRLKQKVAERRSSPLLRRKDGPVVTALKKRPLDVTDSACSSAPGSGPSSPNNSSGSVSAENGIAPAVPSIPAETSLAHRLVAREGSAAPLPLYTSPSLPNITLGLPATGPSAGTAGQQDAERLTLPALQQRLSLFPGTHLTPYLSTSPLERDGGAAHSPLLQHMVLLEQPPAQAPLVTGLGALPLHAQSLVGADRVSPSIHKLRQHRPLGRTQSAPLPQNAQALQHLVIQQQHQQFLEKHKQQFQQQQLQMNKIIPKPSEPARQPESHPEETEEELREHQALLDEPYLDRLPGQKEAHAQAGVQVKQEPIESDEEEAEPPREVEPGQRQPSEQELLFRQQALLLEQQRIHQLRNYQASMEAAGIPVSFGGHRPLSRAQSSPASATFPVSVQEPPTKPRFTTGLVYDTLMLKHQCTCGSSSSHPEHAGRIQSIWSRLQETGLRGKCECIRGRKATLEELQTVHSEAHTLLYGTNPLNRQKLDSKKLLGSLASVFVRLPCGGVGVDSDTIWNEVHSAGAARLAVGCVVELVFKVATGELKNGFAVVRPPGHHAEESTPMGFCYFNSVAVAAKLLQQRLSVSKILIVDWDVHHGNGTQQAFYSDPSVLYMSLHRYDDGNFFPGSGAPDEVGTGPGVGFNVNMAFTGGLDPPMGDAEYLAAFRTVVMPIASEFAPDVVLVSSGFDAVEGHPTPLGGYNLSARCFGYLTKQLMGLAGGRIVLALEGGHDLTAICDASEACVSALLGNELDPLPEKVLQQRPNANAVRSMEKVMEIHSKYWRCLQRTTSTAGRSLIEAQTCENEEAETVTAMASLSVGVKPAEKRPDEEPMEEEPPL

COc1ccc(N(C)c2nc(C)nc3ccccc23)cc1OCCCC(=O)NO [23BB, N-hydroxy-4-(2-methoxy-5-(methyl(2-methylquinazolin-4-yl)-amino)phenoxy)butanamide]
> 588.235: Selective Ratio HDAC4 (HDAC4) | Selective Ratio HDAC9 (HDAC9) | Selective Ratio HDAC11 (HDAC11) | Selective Ratio HDAC5 (HDAC5) | Selective Ratio HDAC7 (HDAC7)
